From US20100234430A1, “METHODS AND PHARMACEUTICAL FORMULATIONS FOR PROTECTING PHARMACEUTICAL COMPOUNDS FROM ACIDIC ENVIRONMENTS” (priority 2001, published 2010)

Experiments:
[1] = Degradation of lansoprazole as a function of pH at 37 degrees C.; format: physicochemical; details: for half-life: buffer
Excerpt: For example, lansoprazole is a substituted benzimidaole that is an acid labile pharmaceutical compound that inhibits gastric acid secretions. The affect of gastric pH on the degradation of an acid-labile drug such as lansoprazole is conveyed in Table 1. The data shown in Table 1 was collected at 37 degrees C., wherein “K” reflects the first order degradation constant.

[2] = Acid neutralization test of tablets, time for pH to rise to 7 (Example 1); format: physicochemical; details: 840 mg tablet, basket 75 rpm, 50 ml SGF + 50 ml water
Experimental: 840 mg of each of magnesium hydroxide, tromethamine, and carbicarb were separately compressed into tablets utilizing a carver press having a 13 mm die at a 1 second dwell time and 500 pounds of compression force. Also, a first mixture containing 420 mg of magnesium hydroxide and 420 mg of tromethamine was also compressed into tablet-form using the method described above. Additionally, a second mixture containing 420 mg of magnesium hydroxide and 420 mg of carbicarb was compressed into tablet-form as previously described.
Each of the five different preparations was tested separately in the following manner. Tablets of each preparation were placed in a USP dissolution apparatus basket which was then attached to a spindle. The stirring component of the apparatus was set to rotate the basket at a speed of approximately 75 rpm. The loaded, rotating basket was then immersed into a beaker containing 50 ml of SGF and 50 ml of distilled de-ionized water. The pH of the medium in the beaker was monitored continuously throughout the test procedure utilizing a micro pH electrode.

Cc1c(OCC(F)(F)F)ccnc1C[S+]([O-])c1nc2ccccc2[nH]1 (centres unmarked) [lansoprazole]
half-life ([1]; pH 5, 37 degrees C.): 31.2 min | half-life ([1]; pH 6, 37 degrees C.): 204 min | half-life ([1]; pH 7, 37 degrees C.): 1080 min | half-life ([1]; pH 8, 37 degrees C.): 2220 min | half-life ([1]; pH 9, 37 degrees C.): 4680 min | % Drug Remaining After 30 Minutes ([1]; pH 5, 37 degrees C.): 51.37% | K (first order degradation constant) ([1]; pH 5, 37 degrees C.): 1.33 hr.^−1 | % Drug Remaining After 30 Minutes ([1]; pH 6, 37 degrees C.): 90.30% | K (first order degradation constant) ([1]; pH 6, 37 degrees C.): 0.20 hr.^−1 | % Drug Remaining After 30 Minutes ([1]; pH 7, 37 degrees C.): 98.10% | K (first order degradation constant) ([1]; pH 7, 37 degrees C.): 0.04 hr.^−1 | % Drug Remaining After 30 Minutes ([1]; pH 8, 37 degrees C.): 99.10% | K (first order degradation constant) ([1]; pH 8, 37 degrees C.): 0.02 hr.^−1 | % Drug Remaining After 30 Minutes ([1]; pH 9, 37 degrees C.): 99.57% | K (first order degradation constant) ([1]; pH 9, 37 degrees C.): 0.01 hr.^−1

NC(CO)(CO)CO [Tromethamine (TRIS), Tromethamine]
Time to Raise the pH of SGF to 7 at 37 degrees C. [2]: 75 seconds

[Mg+2].[OH-].[OH-] [Magnesium hydroxide]
Time to Raise the pH of SGF to 7 at 37 degrees C. [2]: 565 seconds
